Test results as given in ChEMBL document CHEMBL5634123, “Design and synthesis of 1H-benzo[d]imidazole selective HDAC6 inhibitors with potential therapy for multiple myeloma” (Eur J Med Chem, 2023).
Calls of active or inactive are those of the source. No cut-off for these calls is given here.

Experiments:
[1] = target: T1, Histone deacetylase 11 (Homo sapiens, UniProt Q96DB2); experiment: Inhibition of HDAC11 (unknown origin) preincubated for 10 mins followed by substrate addition by fluorescence based assay
T1 sequence (Q96DB2 whole entry): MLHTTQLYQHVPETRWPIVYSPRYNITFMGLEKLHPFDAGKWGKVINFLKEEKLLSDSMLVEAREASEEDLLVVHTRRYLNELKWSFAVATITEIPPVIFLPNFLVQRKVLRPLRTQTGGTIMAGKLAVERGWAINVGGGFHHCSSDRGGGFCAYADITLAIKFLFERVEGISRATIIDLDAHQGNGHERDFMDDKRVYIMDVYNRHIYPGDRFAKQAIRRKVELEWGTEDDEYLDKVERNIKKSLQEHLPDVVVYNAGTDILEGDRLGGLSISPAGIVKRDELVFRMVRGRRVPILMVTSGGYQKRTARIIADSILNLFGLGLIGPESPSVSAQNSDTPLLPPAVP

[2] = target: Histone deacetylase 4 (Homo sapiens, UniProt P56524); experiment: Inhibition of HDAC4 (unknown origin) preincubated for 10 mins followed by substrate addition by fluorescence based assay
[3] = system: RPMI-8226; experiment: Induction of apoptosis in human RPMI-8226 cells assessed as necrotic cells at 0.1 uM incubated for 24 hrs by Annexin V-FITC/PI staining based flow cytometry (reference value: 0.90 %); type: functional
[4] = Toxicity in Balb/c nude mouse xenografted with human RPMI-8226 cells assessed as adverse effect on spleen at 10 to 40 mg/kg, po qd for 21 days administered consecutively by H and E staining based analysis; type: organism-based; details: in vivo, 504 h, dose 10-40 mg/kg, time 21 day
[5] = Toxicity in Balb/c nude mouse xenografted with human RPMI-8226 cells assessed as adverse effect on serum uric acid level at 10 to 40 mg/kg, po qd for 21 days administered consecutively; type: organism-based; details: in vivo, 504 h, dose 10-40 mg/kg, time 21 day
[6] = Toxicity in Balb/c nude mouse xenografted with human RPMI-8226 cells assessed as body weight loss at 10 to 40 mg/kg, po qd for 21 days administered consecutively; type: organism-based; details: in vivo, 504 h, dose 10-40 mg/kg, time 21 day
[7] = system: RPMI-8226; experiment: Induction of cell cycle arrest at S phase in human RPMI-8226 cells at 0.5 uM incubated for 24 hrs by PI staining based flow cytometry (reference value: 58.5 %); type: functional
[8] = system: RPMI-8226; experiment: Induction of apoptosis in human RPMI-8226 cells assessed as early apoptotic cells at 0.1 uM incubated for 24 hrs by Annexin V-FITC/PI staining based flow cytometry (reference value: 5.34 %); type: functional
[9] = system: RPMI-8226; experiment: Induction of cell cycle arrest at G2 phase in human RPMI-8226 cells at 2.5 uM incubated for 24 hrs by PI staining based flow cytometry (reference value: 18.3 %); type: functional
[10] = Toxicity in Balb/c nude mouse xenografted with human RPMI-8226 cells assessed as adverse effect on kidney at 10 to 40 mg/kg, po qd for 21 days administered consecutively by H and E staining based analysis; type: organism-based; details: in vivo, 504 h, dose 10-40 mg/kg, time 21 day
[11] = target: T2, Histone deacetylase 7 (Homo sapiens, UniProt Q8WUI4); experiment: Inhibition of HDAC7 (unknown origin) preincubated for 10 mins followed by substrate addition by fluorescence based assay
T2 sequence (Q8WUI4 whole entry): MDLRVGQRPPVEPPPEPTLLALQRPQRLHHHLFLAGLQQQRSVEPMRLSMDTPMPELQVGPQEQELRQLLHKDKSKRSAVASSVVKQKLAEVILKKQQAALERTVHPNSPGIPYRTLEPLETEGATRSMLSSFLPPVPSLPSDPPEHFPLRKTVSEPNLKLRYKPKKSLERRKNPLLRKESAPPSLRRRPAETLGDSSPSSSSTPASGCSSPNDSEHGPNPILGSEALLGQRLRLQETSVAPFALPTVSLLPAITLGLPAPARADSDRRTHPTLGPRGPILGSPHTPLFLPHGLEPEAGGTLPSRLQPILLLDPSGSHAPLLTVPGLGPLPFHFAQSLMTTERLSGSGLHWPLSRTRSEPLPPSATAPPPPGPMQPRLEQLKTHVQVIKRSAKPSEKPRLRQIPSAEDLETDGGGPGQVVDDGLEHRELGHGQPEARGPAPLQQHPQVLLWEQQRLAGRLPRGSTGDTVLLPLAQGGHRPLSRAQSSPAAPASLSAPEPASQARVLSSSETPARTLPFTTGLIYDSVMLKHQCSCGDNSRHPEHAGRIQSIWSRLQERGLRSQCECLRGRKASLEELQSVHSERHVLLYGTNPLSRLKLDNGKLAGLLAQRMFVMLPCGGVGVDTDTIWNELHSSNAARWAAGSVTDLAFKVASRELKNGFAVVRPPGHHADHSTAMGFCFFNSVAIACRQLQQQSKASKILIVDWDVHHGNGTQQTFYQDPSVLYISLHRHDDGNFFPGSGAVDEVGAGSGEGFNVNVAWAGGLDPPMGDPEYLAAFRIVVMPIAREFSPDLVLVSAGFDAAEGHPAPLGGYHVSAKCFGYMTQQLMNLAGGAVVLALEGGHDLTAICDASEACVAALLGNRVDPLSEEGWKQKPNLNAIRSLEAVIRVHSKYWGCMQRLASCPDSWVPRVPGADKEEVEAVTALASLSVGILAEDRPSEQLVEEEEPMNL

[12] = system: RPMI-8226; experiment: Induction of apoptosis in human RPMI-8226 cells assessed as viable cells at 2.5 uM incubated for 24 hrs by Annexin V-FITC/PI staining based flow cytometry (reference value: 90.98 %); type: functional; details: read-out: Activity
[13] = target: Histone deacetylase 9 (Homo sapiens, UniProt Q9UKV0); experiment: Inhibition of HDAC9 (unknown origin) preincubated for 10 mins followed by substrate addition by fluorescence based assay
[14] = Cmax in mouse at 10 mg/kg, po; type: ADME, organism-based; details: in vivo
[15] = system: RPMI-8226; experiment: Induction of apoptosis in human RPMI-8226 cells assessed as increase in APAF-1 expression at 0.1 to 2.5 uM incubated for 24 hrs by Western blot analysis; type: functional, cell-based; details: dose 0.1-2.5 µM
[16] = system: RPMI-8226; experiment: Induction of apoptosis in human RPMI-8226 cells assessed as increase in p53 expression at 0.1 to 2.5 uM incubated for 24 hrs by Western blot analysis; type: functional, cell-based; details: dose 0.1-2.5 µM
[17] = Toxicity in Balb/c nude mouse xenografted with human RPMI-8226 cells assessed as adverse effect on heart at 10 to 40 mg/kg, po qd for 21 days administered consecutively by H and E staining based analysis; type: organism-based; details: in vivo, 504 h, dose 10-40 mg/kg, time 21 day
[18] = Toxicity in Balb/c nude mouse xenografted with human RPMI-8226 cells assessed as adverse effect on serum ALT level at 10 to 40 mg/kg, po qd for 21 days administered consecutively; type: organism-based; details: in vivo, 504 h, dose 10-40 mg/kg, time 21 day
[19] = system: SGC-7901; experiment: Cytotoxicity against human SGC-7901 cells assessed as inhibition of cell viability incubated for 24 hrs by CCK8 assay; type: functional, cell-based; details: SGC-7901, 24 h
[20] = Clearance in mouse at 1 mg/kg, iv; type: ADME, organism-based; details: in vivo
[21] = system: RPMI-8226; experiment: Induction of apoptosis in human RPMI-8226 cells assessed as necrotic cells at 2.5 uM incubated for 24 hrs by Annexin V-FITC/PI staining based flow cytometry (reference value: 0.90 %); type: functional
[22] = Oral bioavailability in mouse at 10 mg/kg; type: ADME, organism-based; details: in vivo

Chain of Histone deacetylase 4 (P56524 whole entry): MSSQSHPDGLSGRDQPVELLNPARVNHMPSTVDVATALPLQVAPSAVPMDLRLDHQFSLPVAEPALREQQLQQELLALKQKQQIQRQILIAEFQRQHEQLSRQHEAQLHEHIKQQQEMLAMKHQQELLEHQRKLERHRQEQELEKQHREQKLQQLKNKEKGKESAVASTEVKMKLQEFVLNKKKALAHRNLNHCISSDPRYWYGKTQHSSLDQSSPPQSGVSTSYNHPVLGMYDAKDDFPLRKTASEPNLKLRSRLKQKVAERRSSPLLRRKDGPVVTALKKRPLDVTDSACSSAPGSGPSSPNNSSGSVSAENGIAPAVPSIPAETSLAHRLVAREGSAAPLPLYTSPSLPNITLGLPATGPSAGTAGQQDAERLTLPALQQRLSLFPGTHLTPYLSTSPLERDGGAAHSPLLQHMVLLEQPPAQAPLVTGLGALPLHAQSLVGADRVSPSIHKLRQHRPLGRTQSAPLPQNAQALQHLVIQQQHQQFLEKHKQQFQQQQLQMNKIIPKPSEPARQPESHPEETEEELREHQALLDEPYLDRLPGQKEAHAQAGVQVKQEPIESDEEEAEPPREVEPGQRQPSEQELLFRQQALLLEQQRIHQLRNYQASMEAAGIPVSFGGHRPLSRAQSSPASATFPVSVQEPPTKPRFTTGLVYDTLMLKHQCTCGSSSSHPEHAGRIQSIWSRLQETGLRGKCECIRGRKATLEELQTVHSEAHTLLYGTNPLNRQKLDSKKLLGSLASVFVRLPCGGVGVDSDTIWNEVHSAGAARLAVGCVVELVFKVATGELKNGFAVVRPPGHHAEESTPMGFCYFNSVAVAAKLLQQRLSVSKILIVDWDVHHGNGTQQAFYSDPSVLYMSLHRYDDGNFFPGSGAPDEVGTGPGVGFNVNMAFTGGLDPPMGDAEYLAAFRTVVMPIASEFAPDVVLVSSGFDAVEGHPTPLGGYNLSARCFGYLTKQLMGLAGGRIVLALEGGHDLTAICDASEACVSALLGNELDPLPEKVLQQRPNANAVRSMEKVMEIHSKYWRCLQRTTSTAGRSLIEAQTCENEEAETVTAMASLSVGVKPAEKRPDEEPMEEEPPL
Chain of Histone deacetylase 9 (Q9UKV0 whole entry): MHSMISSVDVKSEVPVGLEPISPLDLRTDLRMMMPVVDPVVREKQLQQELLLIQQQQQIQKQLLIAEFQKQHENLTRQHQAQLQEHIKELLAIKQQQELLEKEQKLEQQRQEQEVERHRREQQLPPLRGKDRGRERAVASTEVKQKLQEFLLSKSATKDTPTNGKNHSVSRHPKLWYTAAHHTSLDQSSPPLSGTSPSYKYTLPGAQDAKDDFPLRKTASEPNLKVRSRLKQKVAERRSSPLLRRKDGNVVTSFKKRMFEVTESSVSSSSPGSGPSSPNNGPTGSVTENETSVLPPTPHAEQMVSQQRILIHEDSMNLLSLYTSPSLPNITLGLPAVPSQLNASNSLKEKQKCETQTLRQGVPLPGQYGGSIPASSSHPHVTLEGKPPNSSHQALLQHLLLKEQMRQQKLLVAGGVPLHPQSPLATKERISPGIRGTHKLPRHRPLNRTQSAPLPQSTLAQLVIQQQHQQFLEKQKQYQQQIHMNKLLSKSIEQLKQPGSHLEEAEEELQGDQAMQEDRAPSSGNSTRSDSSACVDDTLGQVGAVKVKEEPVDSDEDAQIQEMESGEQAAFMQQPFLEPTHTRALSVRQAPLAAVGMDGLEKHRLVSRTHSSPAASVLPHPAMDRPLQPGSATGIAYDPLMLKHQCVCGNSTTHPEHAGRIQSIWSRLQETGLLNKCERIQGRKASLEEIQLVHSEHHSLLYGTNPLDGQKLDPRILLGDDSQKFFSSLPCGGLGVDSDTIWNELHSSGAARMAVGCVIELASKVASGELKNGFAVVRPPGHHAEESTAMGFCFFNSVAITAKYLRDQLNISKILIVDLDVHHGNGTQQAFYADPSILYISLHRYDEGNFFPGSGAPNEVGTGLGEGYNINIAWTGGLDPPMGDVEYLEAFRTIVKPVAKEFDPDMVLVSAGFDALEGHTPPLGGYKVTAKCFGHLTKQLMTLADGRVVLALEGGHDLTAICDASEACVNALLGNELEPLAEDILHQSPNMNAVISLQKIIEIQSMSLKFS

IC50 [1]: 983 nM
IC50 [2]: 1930 nM
IC50 [11]: 1230 nM
IC50 [13]: 1880 nM
Cmax [14]: 177 ng/mL
clearance [20]: 82.9 mL/min/kg
bioavailability [22]: 4.6%
SMILES: Cn1c([C@@H](Cc2ccccc2)NCc2ccccc2)nc2cc(C(=O)NO)ccc21
Activity [3]: 0.45%
Activity [4]: Non-Toxic
Activity [5]: Non-Toxic
Activity [6]: Non-Toxic
Activity [7]: 43.3%
Activity [8]: 12.79%
Activity [9]: 25.6%
Activity [10]: Non-Toxic
viability at 2.5 µM [12]: 76.5%
Activity [15]: Active
Activity [16]: Active
Activity [17]: Non-Toxic
Activity [18]: Non-Toxic
IC50 [19]: > 50000 nM
Activity [21]: 0.26%
